Where a name gives a salt, the structure may show the parent alone. Read-outs that look alike come from different tables or passages of the source.
Tests used:
[1] = target: T1, Human vitronectin receptor (αvβ3) (Homo sapiens, UniProt P05106+P06756); assay: Vitronectin adhesion assay (solid phase receptor assay, competition with biotinylated vitronectin); assay type: binding; conditions: read-out: AvB3 IC50
T1 construct: Human vitronectin receptor (αvβ3) was purified from human placenta; from tissue; host or cells: human placenta
Method in brief: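 Purified human αvβ3 coated overnight at 4 °C in TBS with 1.0 mM Ca++, Mg++, Mn++, pH 7.4; compounds (top final 1.0×10^−4 M) competed with 1 nM biotinylated vitronectin for 2 h at room temperature. Bound ligand detected by HRP anti-biotin/OPD at A450; values normalized to no-competitor controls, four-parameter curve fit.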

[2] = target: T2, Human fibrinogen receptor (αIIbβ3) (Homo sapiens, UniProt P05106+P08514); assay: Purified IIb/IIIa receptor assay (solid phase receptor assay, competition with biotinylated vitronectin); assay type: binding; conditions: read-out: IIb/IIIa IC50
T2 construct: Human fibrinogen receptor (αIIbβ3) was purified from outdated platelets; from tissue; host or cells: outdated human platelets
Method in brief: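 Competition format: 1 nM biotinylated vitronectin plus test compound (highest 1.0×10^−4 M), 2 h at room temperature on wells coated with platelet-derived αIIbβ3. Buffer was TBS containing 1.0 mM Ca, Mg, Mn, pH 7.4. HRP anti-biotin readout at 450 nm; normalized to maximum binding, four-parameter curve fit.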

platelet rich plasma = assay: Human platelet rich plasma assay (ADP induced platelet aggregation); assay type: cell-based; conditions: ADP induced platelet aggregation in human platelet rich plasma, read-out: Human PRP
Procedure: Human Platelet Rich Plasma Assays
Healthy aspirin free donors were selected from a pool of volunteers. The harvesting of platelet rich plasma and subsequent ADP induced platelet aggregation assays were performed as described in Zucker, M. B., “Platelet Aggregation Measured by the Photometric Method”, Methods in Enzymology 169(1989):117-133. Standard venipuncture techniques using a butterfly allowed the withdrawal of 45 mL of whole blood into a 60 mL syringe containing 5 mL of 3.8% trisodium citrate. Following thorough mixing in the syringe, the anti-coagulated whole blood was transferred to a 50 mL conical polyethylene tube. The blood was centrifuged at room temperature for 12 minutes at 200×g to sediment non-platelet cells. Platelet rich plasma was removed to a polyethylene tube and stored at room temperature until used. Platelet poor plasma was obtained from a second centrifugation of the remaining blood at 2000×g for 15 minutes. Platelet counts are typically 300,000 to 500,000 per microliter. Platelet rich plasma (0.45 mL) was aliquoted into siliconized cuvettes and stirred (1100 rpm) at 37° C. for 1 minute prior to adding 50 uL of pre-diluted test compound. After 1 minute of mixing, aggregation was initiated by the addition of 50 uL of 200 uM ADP. Aggregation was recorded for 3 minutes in a Payton dual channel aggregometer (Payton Scientific, Buffalo, N.Y.). The percent inhibition of maximal response (saline control) for a series of test compound dilutions was used to determine a dose response curve.

IC50 [1] [µM]	IC50 [2] [µM]	IC50 (platelet rich plasma; Homo sapiens, Platelet) [µM]	SMILES	IC50 (platelet rich plasma) [µM]
0.00058	0.137	> 20	N=C(N)Nc1cc(C(=O)NCC(=O)NC(CC(=O)O)c2cc(Cl)cc(Cl)c2)cc(C(F)(F)F)c1 (racemic) [Example 177, (±)β-[[2-[[[3-[(aminoiminomethyl)amino]-5-(trifluoromethyl)phenyl]carbonyl]amino]acetyl]amino]-3,5-dichlorobenzenepropanoic acid, trifluoroacetate salt]	–
0.00049	0.0703	> 20	O=C(O)CC(NC(=O)CNC(=O)c1cccc(NC2=NCCN2)c1)c1cc(Cl)cc(Cl)c1 (racemic) [Example 191, (±)β-[[2-[[[3-[(4,5-dihydro-1H-imidazol-2-yl)amino]phenyl]carbonyl]amino]acetyl]amino]-3,5-dichlorobenzenepropanoic acid, trifluoroacetate salt]	–
0.00256	0.209	> 20	Cc1cc(C)cc(C(CC(=O)O)NC(=O)CNC(=O)c2cccc(NC(=N)N)c2)c1 (racemic) [Example 193, (±)β-[[2-[[[3-[(aminoiminomethyl)amino]phenyl]carbonyl]amino]acetyl]amino]-3,5-dimethylbenzenepropanoic acid, trifluoroacetate salt]	–
0.00048	1.1	> 200	O=C(O)CC(NC(=O)CNC(=O)c1cccc(NC2=NCCCN2)c1)c1cc(Cl)cc(Cl)c1 (racemic) [Example 200, (±)3,5-dichloro-β-[[2-[[[3-[(1,4,5,6-tetrahydropyrimidin-2-yl)amino]phenyl]carbonyl]amino]acetyl]amino]benzenepropanoic acid, trifluoroacetate salt]	–
0.00202	0.112	> 200	COc1ccc(C(CC(=O)O)NC(=O)CNC(=O)c2cccc(NC(=N)N)c2)c(O)c1 (racemic) [Example 222, (±)β-[[2-[[[3-[(aminoiminomethyl)amino]phenyl]carbonyl]amino]acetyl]amino]-2-hydroxy-4-methoxybenzenepropanoic acid]	–
0.00276	0.471	> 20	N=C(N)Nc1cccc(C(=O)NCC(=O)NC(CC(=O)O)c2cc(Cl)cc(Cl)c2O)c1 (racemic) [Example 225, (±)β-[[2-[[[3-[(aminoiminomethyl)amino]phenyl]carbonyl]amino]acetyl]amino]-3,5-dichloro-2-hydroxybenzenepropanoic acid, trifluoroacetate salt, monohydrate]	–
0.00707	2.91	> 200	N=C(N)Nc1cccc(C(=O)NCC(=O)NC(CC(=O)O)c2cc([N+](=O)[O-])ccc2O)c1 (racemic) [Example 226, (±)β-[[2-[[[3-[(aminoiminomethyl)amino]phenyl]carbonyl]amino]acetyl]amino]-2-hydroxy-5-nitrobenzenepropanoic acid, trifluoroacetate salt]	–
0.0141	2.64	> 200	N=C(N)Nc1cccc(C(=O)NCC(=O)NC(CC(=O)O)c2cc(Br)cc(Br)c2O)c1 (racemic) [Example 227, (±)β-[[2-[[[3-[(aminoiminomethyl)amino]phenyl]carbonyl]amino]acetyl]amino]-3,5-dibromo-2-hydroxybenzenepropanoic acid, trifluoroacetate salt, monohydrate]	–
0.00336	0.583	> 200	N=C(N)Nc1cccc(C(=O)NCC(=O)NC(CC(=O)O)c2cc(Br)ccc2O)c1 (racemic) [Example 228, (±)β-[[2-[[[3-[(aminoiminomethyl)amino]phenyl]carbonyl]amino]acetyl]amino]-5-bromo-2-hydroxybenzenepropanoic acid, trifluoroacetate salt, monohydrate]	–
0.0191	12.1	> 200	O=C(O)CC(NC(=O)CNC(=O)c1cccc(NC2=NCCCCC2)c1)c1cc(Cl)cc(Cl)c1O (racemic) [Example 232, (±)3,5-dichloro-2-hydroxy-β-[[2-[[[3-[(3,4,5,6-tetrahydro-2H-azepin-7-yl)amino]phenyl]carbonyl]amino]acetyl]amino]benzenepropanoic acid, trifluoroacetate salt, monohydrate]	–
0.0943	0.269	> 200	C#C[C@H](CC(=O)O)NC(=O)CNC(=O)c1cccc(NC(=N)N2CCCC2)c1 [Example 34, βS-[[2-[[[3-[[imino(1-pyrrolidinyl)methyl]amino]phenyl]carbonyl]amino]acetyl]amino]-4-pentynoic acid, trifluoroacetate salt]	–
0.0571	0.00621	69.5	C#C[C@H](CC(=O)O)NC(=O)CNC(=O)c1c(F)c(F)cc(NC(=N)N)c1F [Example 35, βS-[[2-[[[3-[(aminoiminomethyl)amino]-2,5,6-trifluorophenyl]carbonyl]amino]acetyl]amino]-4-pentynoic acid, trifluoroacetate salt]	–
0.0103	0.834	> 200	C#C[C@H](CC(=O)O)NC(=O)CNC(=O)c1cccc(NC(N)=O)c1 [Example 40, 3S-[[2-[[[3-(aminocarbonylamino)phenyl]carbonyl]amino]acetyl]amino]-4-pentynoic acid]	–
0.00033	0.998	> 20	C#C[C@H](CC(=O)O)NC(=O)CNC(=O)c1cccc(NC(=O)NCc2ccccc2)c1 [Example 44, 3S-[[2-[[[3-[[[(phenylmethyl)amino]carbonyl]amino]phenyl]carbonyl]amino]acetyl]amino]-4-pentynoic acid]	–
0.0546	0.93	> 200	N=C(N)Nc1cccc(C(=O)NCC(=O)NC(CC(=O)O)CC(=O)O)c1 [Example 53, 3-[[2-[[[3-[(aminoiminomethyl)amino]phenyl]carbonyl]amino]acetyl]amino]pentanedioic acid, trifluoroacetate salt]	–
0.00548	0.125	> 200	N=C(N)Nc1cccc(C(=O)NCC(=O)N[C@H](CSc2ccccc2)CC(=O)O)c1 [Example 68, 3S-[[2-[[[3-[(aminoiminomethyl)amino]phenyl]carbonyl]amino]acetyl]amino]-4-(phenylthio)butanoic acid, trifluoroacetate salt]	–
0.00121	0.152	> 200	N=C(N)Nc1cccc(C(=O)NCC(=O)N[C@H](CSc2ccccc2C(=O)O)CC(=O)O)c1 [Example 72, 2-[[2S-[[2-[[[3-[(aminoiminomethyl)amino]phenyl]carbonyl]amino]acetyl]amino]-2-(carboxymethyl)ethyl]thio]benzoic acid, trifluoroacetate salt]	–
0.00143	0.0254	> 200	N=C(N)Nc1cccc(C(=O)NCC(=O)NC(CC(=O)O)c2ccc3c(c2)OCCO3)c1 (stereo not drawn) [Example 95, β-[[(2-[[[3-[(aminoiminomethyl)amino]phenyl]carbonyl]amino]acetyl]amino]-1,4-benzodioxin-6-propanoic acid, trifluoroacetate salt]	–
0.0166	19.1	> 20	O=C(O)CCNC(=O)CNC(=O)c1cccc(NC(=O)NCc2ccccc2)c1 [Example 103, 3-[[2-[[[3-[[[(phenylmethyl)amino]carbonyl]amino]phenyl]carbonyl]amino]acetyl]amino]propanoic acid]	–
0.0252	4.87	> 200	O=C(O)CC(NC(=O)CNC(=O)c1cccc(NC(=O)Nc2ccccc2)c1)c1cccnc1 (stereo not drawn) [Example 108, β-[[2-[[[3-[[(phenylamino]carbonyl]amino]phenyl]carbonyl]amino]acetyl]amino]pyridine-3-propanoic acid, trifluoroacetate salt]	–

SMILES	IC50 [1] [µM]	IC50 [2] [µM]	IC50 (platelet rich plasma; Homo sapiens, Platelet) [µM]	IC50 (platelet rich plasma) [µM]
N=C(N)Nc1cccc(C(=O)NCC(=O)NC(CC(=O)O)c2cc(Cl)cc(Br)c2O)c1 (racemic) [Example 233, (±)β-[[2-[[[3-[(aminoiminomethyl)amino]phenyl]carbonyl]amino]acetyl]amino]-3-bromo-5-chloro-2-hydroxybezenepropanoic acid, trifluoroacetate salt, monohydrate]	0.00331	0.647	–	> 200
